pIC50: −log10 of the molar value.
Legend:
KRAS G12C = KRAS G12C (Homo sapiens, UniProt P01116, G12C); experiment: GDP-GTP exchange assay (KRAS_G12C exchange); type: biochemical; details: bodipy-GDP loaded KRAS G12C 2.5 nM, SOS1 150 nM, GppNHp; 2 hours pre-incubation, 2 hours reaction; read-out: G12C_exchange
Method: Example A. GDP-GTP Exchange Assay
The inhibitor potency of the exemplified compounds was determined in a fluorescence based guanine nucleotide exchange assay, which measures the exchange of bodipy-GDP (fluorescently labeled GDP) for GppNHp (Non-hydrolyzable GTP analog) to generate the active state of KRAS in the presence of SOS1 (guanine nucleotide exchange factor). Inhibitors were serially diluted in DMSO and a volume of 0.1 μL was transferred to the wells of a black low volume 384-well plate. 5 μL/well volume of bodipy-loaded KRAS G12C diluted to 5 nM in assay buffer (25 mM Hepes pH 7.5, 50 mM NaCl, 10 mM MgCl2 and 0.01% Brij-35) was added to the plate and pre-incubated with inhibitor for 2 hours at ambient temperature. Appropriate controls (enzyme with no inhibitor or with a G12C inhibitor (AMG-510)) were included on the plate. The exchange was initiated by the addition of a 5 μL/well volume containing 1 mM GppNHp and 300 nM SOS1 in assay buffer. The 10 μL/well reaction concentration of the bodipy-loaded KRAS G12C, GppNHp, and SOS1 were 2.5 nM, 500 uM, and 150 nM, respectively. The reaction plates were incubated at ambient temperature for 2 hours, a time estimated for complete GDP-GTP exchange in the absence of inhibitor. For the KRAS G12D and G12V mutants, similar guanine nucleotide exchange assays were used with 2.5 nM as final concentration for the bodipy loaded KRAS proteins and with 4 hours and 3 hours incubation after adding GppNHp-SOS1 mixture for G12D and G12V respectively. A cyclic peptide described to selectively bind G12D mutant (Sakamoto et al., BBRC 484.3 (2017), 605-611) or internal compounds with confirmed binding were used as positive controls in the assay plates. Fluorescence intensities were measured on a PheraStar plate reader instrument (BMG Labtech) with excitation at 485 nm and emission at 520 nm.
Either GraphPad prism or XLfit was used to analyze the data. The IC50 values were derived by fitting the data to a four parameter logistic equation producing a sigmoidal dose-response curve with a variable Hill coefficient. Prism equation: Y=Bottom+(Top−Bottom)/(1+10^((Log lC50−X)*Hill slope)); XLfit equation: Y=(A+((B−A)/(1+((X/C)^D)))) where X is the logarithm of inhibitor concentration and Y is the response.

[1] = system: MIA PaCa-2 (KRAS G12C) cells; experiment: Cellular pERK HTRF assay (KRAS_G12C pERK); type: cell-based, human; details: Homo sapiens, MIA PaCa-2, 4 hours incubation, read-out: G12C_pERK
Method: Example C: Cellular pERK HTRF Assay
MIA PaCa-2 (KRAS G12C; ATCC® CRL-1420), A427 (KRAS G12D; ATCC® HTB53), HPAF-II (KRAS G12D; ATCC® CRL-1997) and NCI-H838 (KRAS WT; ATCC® CRL-5844) cells are purchased from ATCC and maintained in RPMI 1640 media supplemented with 10% FBS (Gibco/Life Technologies). The cells are plated at 5000 cells per well (8 uL) into Greiner 384-well low volume, flat-bottom, tissue culture treated white plates and incubated overnight at 37° C., 5% CO2. The next morning, test compound stock solutions are diluted in media at 3× the final concentration, and 4 uL are added to the cells. The plate is mixed by gentle rotation for 30 seconds (250 rpm) at room temperature. The cells are incubated with the KRAS G12C and G12D compounds for 4 hours or 2 hours respectively at 37° C., 5% CO2.
4 uL of 4× lysis buffer with blocking reagent (1:25) (Cisbio) are added to each well and plates are rotated gently (300 rpm) for 30 minutes at room temperature. 4 uL per well of Cisbio anti Phospho-ERK 1/2 d2 is mixed with anti Phospho-ERK 1/2 Cryptate (1:1) are added to each well, mixed by rotation and incubated overnight in the dark at room temperature. Plates are read on the Pherastar plate reader at 665 nm and 620 nm wavelengths. IC50 determination is performed by fitting the curve of inhibitor percent inhibition versus the log of the inhibitor concentration using the GraphPad Prism 7 software.

Sequence of KRAS G12C (P01116 1-188 isoform P01116-2 G12C): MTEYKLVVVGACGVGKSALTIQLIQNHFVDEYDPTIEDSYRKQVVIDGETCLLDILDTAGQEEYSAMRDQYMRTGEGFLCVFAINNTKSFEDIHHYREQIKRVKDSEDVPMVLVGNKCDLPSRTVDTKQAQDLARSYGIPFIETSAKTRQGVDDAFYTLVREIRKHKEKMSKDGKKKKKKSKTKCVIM

pIC50 (KRAS G12C)	pIC50 [1]	SMILES
≥ 7.00	≥ 7.00	C=CC(=O)N1CCC(n2cnc3c(OC[C@@H]4CCCN4C)nc4c(F)c(-c5cccc6ccccc56)c(Cl)cc4c32)CC1CC#N (mixture of isomers) [Example 38, 2-(1-acryloyl-4-(8-chloro-6-fluoro-4-(((S)-1-methylpyrrolidin-2-yl)methoxy)-7-(naphthalen-1-yl)-1H-imidazo[4,5-c]quinolin-1-yl)piperidin-2-yl)acetonitrile]
≥ 7.00	≥ 7.00	C=CC(=O)N1CCC(n2cnc3c(OC[C@@H]4CCCN4C)nc4c(F)c(-c5cccc(Cl)c5C)c(Cl)cc4c32)CC1CC#N (mixture of isomers) [Example 41, 2-(1-acryloyl-4-(8-chloro-7-(3-chloro-2-methylphenyl)-6-fluoro-4-(((S)-1-methylpyrrolidin-2-yl)methoxy)-1H-imidazo[4,5-c]quinolin-1-yl)piperidin-2-yl)acetonitrile]
≥ 7.00	≥ 7.00	C=CC(=O)N1CCC(n2cnc3c(OC[C@@H]4CCCN4C)nc4c(F)c(-c5cccc(F)c5C)c(Cl)cc4c32)CC1CC#N (mixture of isomers) [Example 42, 2-(1-acryloyl-4-(8-chloro-6-fluoro-7-(3-fluoro-2-methylphenyl)-4-(((S)-1-methylpyrrolidin-2-yl)methoxy)-1H-imidazo[4,5-c]quinolin-1-yl)piperidin-2-yl)acetonitrile]
≥ 7.00	≥ 7.00	C=CC(=O)N1CCC(n2cnc3c(OC[C@@H]4CCCN4C)nc4c(F)c(-c5cccc(C)c5C)c(Cl)cc4c32)CC1CC#N (mixture of isomers) [Example 43, 2-(1-acryloyl-4-(8-chloro-7-(2,3-dimethylphenyl)-6-fluoro-4-(((S)-1-methyl-pyrrolidin-2-yl)methoxy)-1H-imidazo[4,5-c]quinolin-1-yl)piperidin-2-yl)acetonitrile]
≥ 7.00	≥ 7.00	C=CC(=O)N1CCC(n2cnc3c(OC[C@@H]4CCCN4C)nc4c(F)c(-c5cccc6c5CCC6)c(Cl)cc4c32)CC1CC#N (mixture of isomers) [Example 44, 2-(1-acryloyl-4-(8-chloro-7-(2,3-dihydro-1H-inden-4-yl)-6-fluoro-4-(((S)-1-methylpyrrolidin-2-yl)methoxy)-1H-imidazo[4,5-c]quinolin-1-yl)piperidin-2-yl)acetonitrile]
≥ 7.00	≥ 7.00	C=CC(=O)N1C[C@H](C)[C@@H](n2cnc3c(N4CC(N(C)C)C4)nc4c(F)c(-c5cc(O)cc6ccccc56)c(Cl)cc4c32)C1 (racemic) [Example 31a, 1-((trans)-3-(8-chloro-4-(3-(dimethylamino)azetidin-1-yl)-6-fluoro-7-(3-hydroxynaphthalen-1-yl)-1H-imidazo[4,5-c]quinolin-1-yl)-4-methylpyrrolidin-1-yl)prop-2-en-1-one]
6.00 to 7.00	5.30 to 6.00	C=CC(=O)N1CCC(n2cnc3c(=O)n(C)c4c(F)c(-c5cc(O)cc6ccccc56)c(Cl)cc4c32)C1 (racemic) [Example 33, 1-(1-acryloylpyrrolidin-3-yl)-8-chloro-6-fluoro-7-(3-hydroxynaphthalen-1-yl)-5-methyl-1,5-dihydro-4H-imidazo[4,5-c]quinolin-4-one]
≥ 7.00	≥ 7.00	C=CC(=O)N1C[C@H](OC)[C@@H](n2cnc3c(N4CC(N(C)C)C4)nc4c(F)c(-c5cc(O)cc6ccccc56)c(Cl)cc4c32)C1 (relative stereo) [Example 30b, 1-((trans)-3-(8-chloro-4-(3-(dimethylamino)azetidin-1-yl)-6-fluoro-7-(3-hydroxynaphthalen-1-yl)-1H-imidazo[4,5-c]quinolin-1-yl)-4-methoxypyrrolidin-1-yl)prop-2-en-1-one]
≥ 7.00	≥ 7.00	C=CC(=O)N1C[C@H](C)[C@@H](n2cnc3c(OC[C@@H]4CCCN4C)nc4c(F)c(-c5cc(O)cc6ccccc56)c(Cl)cc4c32)C1 (single isomer, unassigned) [Example 29b]
≥ 7.00	≥ 7.00	C=CC(=O)N1CCC(n2cnc3c(OC[C@@H]4CCCN4C)nc4c(F)c(-c5cc(O)cc6ccccc56)c(Cl)cc4c32)CC1CC#N (single isomer, unassigned) [Example 36a]
6.00 to 7.00	–	C=CC(=O)N1CC(n2c(=O)[nH]c3c(=O)n(-c4ccccc4)c4nc(-c5cc(O)cc6ccccc56)c(F)cc4c32)C1 [Example 28, 1-(1-acryloylazetidin-3-yl)-8-fluoro-7-(3-hydroxynaphthalen-1-yl)-5-phenyl-3,5-dihydro-1H-imidazo[4,5-c][1,8]naphthyridine-2,4-dione]

Continued, compound first:

SMILES	pIC50 (KRAS G12C)	pIC50 [1]
C=CC(=O)N1CCCC(n2cnc3c(OC[C@@H]4CCCN4C)nc4c(F)c(-c5cc(O)cc6ccccc56)c(Cl)cc4c32)C1 (mixture of isomers) [Example 5, 1-(3-(8-chloro-6-fluoro-7-(3-hydroxynaphthalen-1-yl)-4-(((S)-1-methylpyrrolidin-2-yl)methoxy)-1H-imidazo[4,5-c]quinolin-1-yl)piperidin-1-yl)prop-2-en-1-one]	≥ 7.00	5.30 to 6.00
C=CC(=O)N1CCC(n2cnc3c(OC[C@@H]4CCCN4C)nc4c(F)c(-c5cc(O)cc6ccccc56)c(Cl)cc4c32)C1 (mixture of isomers) [Example 7, 1-(3-(8-chloro-6-fluoro-7-(3-hydroxynaphthalen-1-yl)-4-(((S)-1-methyl-pyrrolidin-2-yl)methoxy)-1H-imidazo[4,5-c]quinolin-1-yl)pyrrolidin-1-yl)prop-2-en-1-one]	≥ 7.00	≥ 7.00
C=CC(=O)N1CCC(n2cnc3c(OC[C@@H]4CCCN4C)nc4c(F)c(-c5cc(O)cc6ccccc56)c(Cl)cc4c32)CC1 (single isomer, unassigned) [Example 1a]	≥ 7.00	6.00 to 7.00
C=CC(=O)N1CCC(n2cnc3c(OC[C@@H]4CCCN4C)nc4c(F)c(-c5c(O)cccc5F)c(Cl)cc4c32)CC1 (single isomer, unassigned) [Example 2a]	6.00 to 7.00	5.30 to 6.00
C=CC(=O)N1CCC(n2cnc3c(OC[C@@H]4CCCN4C)nc4c(F)c(-c5cccc(O)c5F)c(Cl)cc4c32)CC1 (single isomer, unassigned) [Example 3a]	5.30 to 6.00	–
C=CC(=O)N1CCC(n2cnc3c(OC[C@@H]4CCCN4C)nc4c(F)c(-c5c(C)ccc6[nH]ncc56)c(Cl)cc4c32)CC1 (single isomer, unassigned) [Example 4a]	≥ 7.00	6.00 to 7.00
C=CC(=O)N1CC(n2cnc3c(OC[C@@H]4CCCN4C)nc4c(F)c(-c5cc(O)cc6ccccc56)c(Cl)cc4c32)C1 (single isomer, unassigned) [Example 6a]	≥ 7.00	6.00 to 7.00
C=CC(=O)N1CCC(n2nnc3c(OC[C@@H]4CCCN4C)nc4c(F)c(-c5cc(O)cc6ccccc56)c(Cl)cc4c32)CC1 (single isomer, unassigned) [Example 14a]	≥ 7.00	≥ 7.00
C=CC(=O)N1CCC(n2cnc3c(OCc4ccnn4C)nc4c(F)c(-c5cc(O)cc6ccccc56)c(Cl)cc4c32)CC1 [Example 8, 1-(4-(8-chloro-6-fluoro-7-(3-hydroxynaphthalen-1-yl)-4-((1-methyl-1H-pyrazol-5-yl)methoxy)-1H-imidazo[4,5-c]quinolin-1-yl)piperidin-1-yl)prop-2-en-1-one]	6.00 to 7.00	–
